The values that follow come from patent US5486516A, “Furopyrimidine derivatives” (DowElanco, priority 1993, dated 1996).

Data set [1] has as its system Pyricularia oryzae (rice blast). Briefly: whole plant or invertebrate. It is filed as in vivo. The note with it: foliar, read-out: RICE BLAST control rating.
Data set [2] has as its system Southern corn rootworm (Diabrotica undecimpuctata howardi Barber). Briefly: Mite/insect screen, corn rootworm. It is filed as in vivo. The note with it: soil; for mortality at 12 ppm / mortality at 24 ppm: Diabrotica, read-out: CRW results (percent mortality). In short, it runs like this:
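Compound in acetone/alcohol with emulsifiers, diluted with water; 1 mL applied to 15 g dry sandy soil holding a presoaked corn seed. After 6–12 h drying, five 2-3 instar larvae added, held at 23° C; percent mortality and phytotoxicity scored after standard exposure periods.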

Data set [3] has as its system southern armyworm (Spodopetra eridania Cramer). The experiment in a line: Mite/insect screen, Southern armyworm. The format is in vivo. The following applies: sprayed leaves; for mortality at 200 ppm / mortality at 400 ppm: Spodoptera eridania, read-out: SAW results (percent mortality). In short, it runs like this: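 Compounds in acetone/alcohol with Toximul emulsifiers, diluted in water, sprayed to runoff on squash leaves at 10 psi and dried 1 h. Excised treated leaves fed to southern armyworm larvae in Petri dishes; percent mortality scored after standard exposure.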

Data set [4] deals with Twospotted spider mites (Tetranychus urticae Koch). The experiment in a line: Mite/insect screen, twospotted spider mites. It is filed as in vivo. The note with it: sprayed leaves; for mortality at 200 ppm / mortality at 400 ppm: Tetranychus urticae, read-out: SM results (percent mortality). In short, it runs like this:
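Squash cotyledons infested with mites were sprayed to runoff at 10 psi with compound in acetone/alcohol plus emulsifiers, diluted in water to the stated concentrations. Percent mortality and phytotoxicity were scored after standard exposure periods.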

Data set [5] deals with melon aphids (Aphis gossvpii Glover). The experiment in a line: Mite/insect screen, melon aphids. It is filed as in vivo. The note with it: sprayed leaves; for mortality at 200 ppm / mortality at 400 ppm: Aphis, read-out: MA results (percent mortality). In short, it runs like this:
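Aphids established on squash cotyledons were sprayed to runoff with compound in acetone/alcohol with sulfonate/nonionic emulsifiers, diluted in water to test concentrations. Leaves dried 1 h. Percent mortality scored after standard exposure periods.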

Data set [6] concerns Puccinia recondita tritici (leaf rust). Briefly: Plant pathology screen (Test 1), leaf rust on wheat. The following applies: in Triticum aestivum, foliar, read-out: LEAF RUST control rating.
Experimental: This screen was used to evaluate the efficacy of the present compounds against a variety of different organisms that cause plant diseases.
(§1) The test compounds were formulated for application by dissolving 50 mg of the compound into 1.25 ml of solvent. The solvent was prepared by mixing 50 ml of "Tween 20" (polyoxyethylene (20) sorbitan monolaurate emulsifier) with 475 ml of acetone and 475 ml of ethanol. The solvent/compound solution was diluted to 125 ml with deionized water. The resulting formulation contains 400 ppm test chemical. Lower concentrations were obtained by serial dilution with the solvent-surfactant mixture.
(§2) The formulated test compounds were applied by foliar spray.
(§3) The formulated technical compounds were sprayed on all foliar surfaces of the host plants (or cut berry) to past run-off. Single pots of each host plant were placed on raised, revolving pedestals in a fume hood. Test solutions were sprayed on all foliar surfaces. All treatments were allowed to dry and the plants were inoculated with the appropriate pathogens within 2-4 hours.
(§4) The effectiveness of test compounds in controlling disease was rated using the following scale.
The test system of data set [7] is Pseudoperonospora cubensis (downy mildew). Briefly: Plant pathology screen (Test 1), downy mildew on squash. The following applies: foliar, read-out: DOWN MDEW control rating.
The test system of data set [8] is Erysiphe graminis tritici (powdery mildew). Briefly: Plant pathology screen (Test 1), powdery mildew on wheat. The following applies: Blumeria graminis, in Triticum aestivum, foliar, read-out: POWD MDEW control rating.
Experimental: as §1, §2, §3, §4
Data set [9] relates to Botrytis cinerea (gray mold). Briefly: Plant pathology screen (Test 1), gray mold on grape berries. The note with it: read-out: GRAY MOLD control rating.

One may read the mortality as the percentage killed. Take `Cc1oc2ncnc(OCCc3ccc(C(F)(F)F)cc3)c2c1C` [Example 54]: the pest or weed control at 400 µg/mL lay within 90 to 100% in data set [1]; 90 to 100% in data set [6]; 0 to 19% in data set [7]; 90 to 100% in data set [8]; 0 to 19% in [9]. Also, in data set [2] (CRW rate 12.00 ppm), the mortality at 12 ppm was found to be 0%. Moreover, the mortality at 24 ppm in [2] (CRW rate 24.00 ppm) turned out to be 0%. Further, the mortality at 200 ppm was 0% in data set [3] (rate 200 ppm), 100% in data set [4] (rate 200 ppm) and 100% in data set [5] (rate 200 ppm). Besides, the mortality at 400 ppm in data set [3] (rate 400 ppm) is 40%; in data set [4] (rate 400 ppm) it was 60%; in [5] (rate 400 ppm) it was 40%.
As for `Cc1oc2ncnc(OCCc3ccc4ccccc4c3)c2c1C` [Example 55, 5,6-dimethyl-4-[2-(2-naphthyl)ethoxy]furo[2,3-d]pyrimidine], the pest or weed control at 400 µg/mL fell in the range of 0 to 19% in data set [1]; 20 to 89% in [6]; 0 to 19% in [7]; 0 to 19% in data set [8]; 0 to 19% in data set [9]. Moreover, in data set [2] (CRW rate 12.00 ppm), the mortality at 12 ppm was 0%. Also, the mortality at 24 ppm in [2] (CRW rate 24.00 ppm) worked out at 0%. Also, the mortality at 200 ppm in [3] (rate 200 ppm), in data set [4] (rate 200 ppm) and in data set [5] (rate 200 ppm) was 0% each time. The mortality at 400 ppm in data set [3] (rate 400 ppm), in [4] (rate 400 ppm) and in data set [5] (rate 400 ppm) was 0% throughout.
In the case of `Cc1oc2ncnc(Sc3ccc(F)cc3)c2c1C` [Example 56, 5,6-dimethyl-4-[(4-fluorophenyl)thio]furo[2,3-d]pyrimidine], the pest or weed control at 400 µg/mL in data set [1] lay within 20 to 89%; in [6], 20 to 89%; in data set [7], 0 to 19%; in data set [8], 20 to 89%; in data set [9] it was 0 to 19%. Besides, the mortality at 12 ppm in [2] (CRW rate 12.00 ppm) is 0%. Moreover, the mortality at 24 ppm in [2] (CRW rate 24.00 ppm) amounted to 0%. Also, the mortality at 200 ppm in data set [3] (rate 200 ppm), in data set [4] (rate 200 ppm) and in data set [5] (rate 200 ppm) was 0% each time. The mortality at 400 ppm in data set [3] (rate 400 ppm), in [4] (rate 400 ppm) and in [5] (rate 400 ppm) was 0% throughout.
Regarding `Cc1oc2ncnc(OCCN3C[C@@H](C)O[C@@H](C)C3)c2c1C` [Example 57, Cis-5,6-dimethyl-4-[2-(2,6-dimethyl-4-morpholinyl)ethoxy]furo[2,3-d]pyrimidine], the pest or weed control at 400 µg/mL in data set [1] lay within 0 to 19%; in [6], 0 to 19%; in [7], 20 to 89%; in data set [8] it was 0 to 19%; in data set [9], 0 to 19%. In addition, the “CRW results (percent mortality)” value in data set [2] (CRW rate 12.00 ppm) and in data set [2] (CRW rate 24.00 ppm) was 0% in each case. For the same compound, the mortality at 12 ppm in data set [2] (CRW rate 12.00 ppm) was found to be 0%. Moreover, in data set [2] (CRW rate 24.00 ppm), the mortality at 24 ppm is 0%. For the same compound, the mortality at 200 ppm in [3] (rate 200 ppm), in data set [4] (rate 200 ppm) and in [5] (rate 200 ppm) was 0% in each case. The mortality at 400 ppm in data set [3] (rate 400 ppm), in data set [4] (rate 400 ppm) and in [5] (rate 400 ppm) was 0% each time. The “SAW results (percent mortality)” value in data set [3] (rate 200 ppm) and in data set [3] (rate 400 ppm) was 0% each time. In addition, the “SM results (percent mortality)” value in data set [4] (rate 200 ppm) and in data set [4] (rate 400 ppm) was 0% in each case. Also, the “MA results (percent mortality)” value in [5] (rate 200 ppm) and in [5] (rate 400 ppm) was 0% in each case.
In the case of `Cc1oc2ncnc(Oc3ccc(F)cc3Cl)c2c1C` [Example 59, 4-(2-chloro-4-fluorophenoxy)-5,6-dimethylfuro[2,3-d]pyrimidine], the pest or weed control at 400 µg/mL in [1] lay in the range of 0 to 19%; in data set [6], 20 to 89%; in data set [7] it was 0 to 19%; in [8] it was 90 to 100%; in data set [9], 0 to 19%. Moreover, in data set [2] (CRW rate 12.00 ppm), the mortality at 12 ppm is 0%. In data set [2] (CRW rate 24.00 ppm), the mortality at 24 ppm turned out to be 0%. Moreover, the mortality at 200 ppm in [3] (rate 200 ppm), in [4] (rate 200 ppm) and in [5] (rate 200 ppm) was 0% each time. Moreover, the mortality at 400 ppm in [3] (rate 400 ppm), in data set [4] (rate 400 ppm) and in data set [5] (rate 400 ppm) was 0% each time.
With `Cc1oc2ncnc(OCC3CCC(C)O3)c2c1C` (stereo not drawn) [Example 60, 5,6-dimethyl-4-[(2-methyloxolan-5-yl)methoxy]furo[2,3-d]pyrimidine], the pest or weed control at 400 µg/mL lay within 0 to 19% in data set [1]; 0 to 19% in [6]; 90 to 100% in [7]; 0 to 19% in [8]; 0 to 19% in data set [9]. Also, the mortality at 12 ppm in data set [2] (CRW rate 12.00 ppm) was 0%. The mortality at 24 ppm in data set [2] (CRW rate 24.00 ppm) was determined as 0%. The mortality at 200 ppm is 0% in [3] (rate 200 ppm), 0% in [4] (rate 200 ppm) and 50% in [5] (rate 200 ppm). The mortality at 400 ppm turned out to be 0% in data set [3] (rate 400 ppm), 80% in data set [4] (rate 400 ppm) and 60% in [5] (rate 400 ppm).
With `Cc1oc2ncnc(OCCc3cccs3)c2c1C` [Example 61, 5,6-dimethyl-4-[2-(2-thienyl)ethoxy]furo[2,3-d]pyrimidine], the pest or weed control at 400 µg/mL in [1] lay in the range of 20 to 89%; in data set [6], 20 to 89%; in data set [7] it was 90 to 100%; in data set [8], 90 to 100%; in [9] it was 0 to 19%. The mortality at 12 ppm in data set [2] (CRW rate 12.00 ppm) came out at 0%. Further, the mortality at 24 ppm in data set [2] (CRW rate 24.00 ppm) stood at 0%. Also, the values for the mortality at 200 ppm in data set [3] (rate 200 ppm), in data set [4] (rate 200 ppm) and in [5] (rate 200 ppm) were 0%, 90% and 90%, respectively. Moreover, the mortality at 400 ppm in data set [3] (rate 400 ppm), in data set [4] (rate 400 ppm) and in data set [5] (rate 400 ppm) was 0% in each case.
For `Cc1ccc(Oc2ncnc3oc(C)c(C)c23)cc1` [Example 62, 5,6-dimethyl-4-(4-methylphenoxy)furo[2,3-d]pyrimidine], the pest or weed control at 400 µg/mL lay in the range of 0 to 19% in [1]; 0 to 19% in data set [6]; 0 to 19% in data set [7]; 90 to 100% in data set [8]; 0 to 19% in data set [9]. Further, in data set [2] (CRW rate 12.00 ppm), the mortality at 12 ppm was found to be 0%. Further, in [2] (CRW rate 24.00 ppm), the mortality at 24 ppm amounted to 0%. Moreover, the mortality at 200 ppm in data set [3] (rate 200 ppm), in [4] (rate 200 ppm) and in [5] (rate 200 ppm) was 0% each time. For the same compound, the mortality at 400 ppm in data set [3] (rate 400 ppm), in [4] (rate 400 ppm) and in data set [5] (rate 400 ppm) was 0% each time.
For the compound `Cc1oc2ncnc(Oc3cccc(C(F)(F)F)c3)c2c1C` [Example 63, 5,6-dimethyl-4-[3-(trifluoromethyl)phenoxy]furo[2,3-d]pyrimidine], the pest or weed control at 400 µg/mL in [1] was 0 to 19%; in data set [6], 0 to 19%; in data set [7], 20 to 89%; in data set [8], 0 to 19%; in data set [9] it was 0 to 19%. Moreover, the mortality at 12 ppm in [2] (CRW rate 12.00 ppm) worked out at 0%. Besides, the mortality at 24 ppm in data set [2] (CRW rate 24.00 ppm) stood at 0%. The mortality at 200 ppm in [3] (rate 200 ppm), in data set [4] (rate 200 ppm) and in data set [5] (rate 200 ppm) was 0% throughout. The values for the mortality at 400 ppm in data set [3] (rate 400 ppm), in data set [4] (rate 400 ppm) and in data set [5] (rate 400 ppm) were 0%, 50% and 80%, respectively.
As for `Cc1oc2ncnc(Oc3ccccc3)c2c1C` [Example 64, 5,6-dimethyl-4-phenoxyfuro[2,3-d]pyrimidine], the pest or weed control at 400 µg/mL in [1] lay in the range of 0 to 19%; in [6], 20 to 89%; in data set [7] it was 90 to 100%; in data set [8], 90 to 100%; in data set [9] it was 0 to 19%. The mortality at 12 ppm in [2] (CRW rate 12.00 ppm) is 0%. For the same compound, the mortality at 24 ppm in [2] (CRW rate 24.00 ppm) amounted to 0%. Further, the mortality at 200 ppm in [3] (rate 200 ppm), in data set [4] (rate 200 ppm) and in [5] (rate 200 ppm) was 0% each time. In addition, the mortality at 400 ppm in data set [3] (rate 400 ppm), in data set [4] (rate 400 ppm) and in data set [5] (rate 400 ppm) was 0% each time.
